For 60 compounds, logP and chromatographic logP results are on record in patent US20100022559A1, “BISOXIMES AS FUNGICIDES” (BAYER CROPSCIENCE AG, priority 2006, published 2010).

A short description of the series: logP determination by HPLC on a reversed-phase column (C 18), EEC Directive 79/831 Annex V.A8. Format: physicochemical. As for the experimental part: The stated logP values were determined in accordance with EEC Directive 79/831 Annex V.A8 by HPLC (high performance liquid chromatography) on a reversed-phase column (C 18). Temperature: 43° C.
The mark [1] stands for this setting: method marker [b], isomer A / isomer B / isomer mixture as noted in the cell.
Setting [2] is: method marker [a] (footnote not shown), isomer A / isomer B / isomer mixture as noted in the cell.
Where [3] appears, read: [b] LC-MS, acidic range, pH 2.7, 0.1% aqueous formic acid and acetonitrile.

Regarding `Cc1nc(/C(N)=N/OCO/N=C(\N)c2nc(C)c3c(n2)CCCC3)nc2c1CCCC2` [compound 39], the logP under setting [1] was 2.29^[b]. As to `CC(=NOCC(C)CON=C(C)c1cc(-c2ccccc2)ccn1)c1cc(-c2ccccc2)ccn1` (centres unmarked) [Compound 119], the logP under setting [2] is 6.33^[a]. On to `CCC(=NOCC(C)(C)CON=C(C)c1cccc(C)n1)c1ncccc1C` [compound 369], for which, under “value marked [b]”, the logP is 4.51^[b]. On to `CC(=NOCC(C)CON=C(C)c1nc(C)c(C)cc1C)c1nc(C)c(C)cc1C` (centres unmarked) [Compound 255], for which, for the setting “value marked [a]”, the logP is 2.19^[a]. As to `C=C(CON=C(C)c1cccc(C)n1)CON=C(C)c1cccc(CCC)n1` [Compound 477], the logP (value marked [b]) is 5.42^[b]. For `Cc1cccc(C(CS(C)(=O)=O)=NOCCCON=C(CS(C)(=O)=O)c2cccc(C)n2)n1` [compound 170], the logP under setting [2] was 2.75^[a]. Take `CC(=NOCCCCON=C(C)c1cccc(C)n1)c1ccc(C)nc1` [compound 382]: the logP (value marked [b]) is 1.90^[b]. Regarding `CC(=NOCC(C)(C)CON=C(C)c1cc(Cl)cc(C)n1)c1cc(Cl)cc(C)n1` [compound 804], for the setting “value marked [a]”, the logP was 7.36^[a]. As to `CC(=NOCC(C)CON=C(C)c1nc(C)ccc1C)c1nc(C)ccc1C` (single isomer, unassigned) [compound 268], the logP (value marked [b]) is 2.08^[b] (isomer A). Consider `C=C(CON=C(C)c1cccc(C)n1)CON=C(C)c1ncccc1Cl` (single isomer, unassigned) [compound 139], for which the logP under setting [1] was 3.39^[b] (isomer B). For `CCC1=NOC(CO/N=C(\C)c2cccc(C)n2)(CO/N=C(\C)c2cccc(C)n2)C1` [(1E,1′E)-1-(6-methylpyridin-2-yl)ethanone O,O′-[(3-ethyl-4,5-dihydroisoxazole-5,5-diyl)bis(methylene)]oxime], under “reversed-phase HPLC column (C 18), HCO2H, HPLC reversed-phase column (C 18), 43° C., read-out: logP (HCO2H)”, the chromatographic logP came to 2.68. With `CCC(CC)(C(=O)ON=C(C)c1ccc(C)c(C)n1)C(=O)ON=C(C)c1ccc(C)c(C)n1` [compound 675], the logP (method marked [b] in Table 1) was 5.06^[b]. Regarding `N/C(=N\OCc1ccc(CO/N=C(\N)c2nc(C3CC3)cc(C3CC3)n2)cc1)c1nc(C2CC2)cc(C2CC2)n1` [compound 720], under “method marked [b] in Table 1”, the logP is 3.76^[b]. Turning to `Cc1cccc(C(=NOCC2(CON=C(c3cccc(C)n3)C3CC3)CC(CC(C)C)=NO2)C2CC2)n1` (centres unmarked) [compound 653], the logP (method marked [a] in Table 1) is 3.99^[a]. Consider `CCCC(=NOCC1(CON=C(CCC)c2cccc(C)n2)CC(CC(C)C)=NO1)c1cccc(C)n1` (centres unmarked) [compound 619], for which the logP (method marked [b] in Table 1) was 6.22^[b]. On to `CC(=NOCC(C)CON=C(C)c1cccc(C)n1)c1ccc2c(c1)OCO2` (centres unmarked) [compound 435], for which the logP (value marked [b]) was 4.57^[b]. The same measure, in the same setting: to `CC(=NOCC(C)(C)CON=C(C)c1cccc(C(C)C)n1)c1cccc(C)n1` [Compound 491] belongs 6.87^[b]; to `CC(=NOCC(C)(C)CON=C(C)c1cccc(C)n1)c1ccc2c(c1)CC(C)O2` (centres unmarked) [compound 482], 5.65^[b]. Turning to `CCOC(CON=C(C)c1cccc(C)n1)CON=C(C)c1cccc(C)n1` (centres unmarked) [Compound 586], the logP is, setting by setting: (method marked [b] in Table 1) 2.87^b]; (method marked [c] in Table 1) 4.76^[c]. In the case of `C=CCCC(=NOCC(=C)CON=C(C)c1cccc(C)n1)c1ncccc1C` [compound 353], the logP (value marked [b]) was 4.56^[b]. On to `CCCC(=NOCC(C)(C)CON=C(CCC)c1cccc(C)n1)c1cccc(C)n1` [Compound 279], for which the logP (value marked [a]) was 7.25^[a].

Take `CC(=NOCC1(CON=C(C)c2cccc(C)n2)CCCC1)c1cccc(C)n1` [Compound 587]: the logP (method marked [b] in Table 1) is 5.49^b] and the logP (method marked [c] in Table 1) was 7.33^[c]. Take `COc1cc(C)nc(C(C)=NOCC(C)CON=C(C)c2cccc(C)n2)c1` (centres unmarked) [Compound 501]: the logP (value marked [b]) was 3.37^[b]. Turning to `CC(=NOCC(C)CON=C(C)c1sc(C)nc1C)c1sc(C)nc1C` (mixture of isomers) [compound 121], the logP under setting [2] is 4.02^[a]. On to `C=C(CON=C(C)c1cccc(C)n1)CON=C(N)c1nc(C)cc(C)n1` [compound 192], for which the logP under setting [1] was 1.97^[b]. Regarding `C=C(CON=C(C)c1nc(C)cc(OC)n1)CON=C(C)c1nc(C)cc(OC)n1` [compound 64], under setting [1], the logP was 3.17^[b]. For the compound `CC(=NOCCCCON=C(C)c1cccc(CC(C)C)n1)c1cccc(C)n1` [compound 326], for the setting “value marked [b]”, the logP was 6.16^[b]. Consider `CCC(=NOCC1(CON=C(CC)c2cccc(C)n2)CC(c2ccccc2Cl)=NO1)c1cccc(C)n1` (centres unmarked) [compound 654], for which the logP (method marked [a] in Table 1) is 5.69^[a]. `CC(=NOCC(C)CON=C(C)c1cc(CO)cc(C)n1)c1cc(CO)cc(C)n1` (centres unmarked) [compound 868]: the logP runs as follows: (value marked [b]) 1.31^[b]; (value marked [c]) 2.67^[c]. As for `CC(=NOCC(C)(C)CON=C(C)c1cccc(Cc2ccccc2)n1)c1cccc(Cc2ccccc2)n1` [Compound 798], the logP is 7.36^[b][a] (value marked [a]) and 7.36^[b] (value marked [b]). Turning to `C/C(=N\OCC(C)(C)CON)c1cccc(C)n1` [XII-4], the logP under setting [3] was 1.11^[b]. On to `CC(=NOCc1cccc(CON=C(C)c2ccc(C)c(C)n2)n1)c1ccc(C)c(C)n1` [compound 741], for which the logP is 2.30^[b] (method marked [b] in Table 1) and 5.08^[c] (method marked [c] in Table 1). For `COc1ccc(C)nc1C(C)=NOCC(C)CON=C(C)c1nc(C)ccc1OC` (centres unmarked) [Compound 251], the logP under setting [1] was 2.04^[b]. As to `CC(=NOCC(C)CON=C(C)c1csc(Cl)n1)c1csc(Cl)n1` (mixture of isomers) [compound 231], the logP under setting [2] was 5.16^[a]. For the compound `CCC(=NOCC(C)CON=C(C)c1cccc(C)n1)c1ncccc1C` (centres unmarked) [compound 425], the logP (value marked [b]) was 3.99^[b]. For the compound `Cc1nc(/C(N)=N/OCc2ccccc2CO/N=C(\N)c2nc(C)c(Cl)c(C)n2)nc(C)c1Cl` [compound 709], the logP (method marked [b] in Table 1) was 3.41^[b]. With `CC(=NOCC(CON=C(C)c1nc(C)ccc1C)c1ccccc1)c1nc(C)ccc1C` (single isomer, unassigned) [compound 755], the logP is 3.62^[b] (method marked [b] in Table 1) and 5.45^[c] (method marked [c] in Table 1).

With `C=C(CON=C(C)c1nc(C)cc(C)n1)CON=C(C)c1nc(C)cc(C)n1` [compound 146], the logP under setting [1] was 2.91^[b]. `CC(=NOCCCCCCON=C(C)c1ccccc1Cl)c1cccc(C)n1` [compound 391]: the logP (value marked [b]) was 5.84^[b].

As to `CC(=NOC(=O)N(C)C(=O)ON=C(C)c1cc(C)cc(C)n1)c1cc(C)cc(C)n1` [compound 676], the logP (method marked [b] in Table 1) was 2.21^[b]. As for `CC(=NOC(=O)NCCCCNC(=O)ON=C(C)c1cc(C)cc(C)n1)c1cc(C)cc(C)n1` [compound 852], the logP (value marked [a]) is 1.63^[a].

On to `CC(=NOCC(C)CON=C(C)c1ccc(C)c(C)n1)c1cc(Cl)cc(C)n1` (centres unmarked) [compound 876], for which the logP was 6.52^[a] (value marked [a]), 6.52^[b] (value marked [b]) and 7.36^[c] (value marked [c]).

Consider `CCOc1cc(C)nc(C(C)=NOCC(C)CON=C(C)c2cc(OCC)cc(C)n2)c1` (centres unmarked) [Compound 683], for which the logP (method marked [a] in Table 1) was 1.71^[a].

Take `Cc1nc(C(N)=NOC/C=C\CON=C(N)c2nc(C)c(Cl)c(C)n2)nc(C)c1Cl` [compound 775]: the logP (value marked [b]) was 2.77^[b].

In the case of `C/C(=N\OCC(C)(C)CON)c1cc(C)cc(C)n1` [XII-14], the logP is, setting by setting: ([a] acidic range, pH 2.3, 0.1% aqueous phosphoric acid and acetonitrile) 0.8^[a]; under setting [3], 0.8^[b]; ([c] LC-MS, neutral range, pH 7.8, 0.001 molar aqueous ammonium bicarbonate solution and acetonitrile) 2.89^[c]. Consider `CC(=NOCC(C)(C)CON=C(C)c1cccc(Cl)n1)c1cccc(Cl)n1` [compound 569], for which, where the note is “method marked [a] in Table 1”, the logP was 6.50^[a]. On to `C=C(CON=C(C)c1cccc(C)n1)CON=C(C)c1nccc(OCC)n1` [compound 249], for which the logP under setting [1] is 3.17^[b].

`CC(=NOCC1(CON=C(C)c2ccc(C)c(C)n2)CCCC1)c1ccc(C)c(C)n1` [Compound 588]: the logP (method marked [b] in Table 1) was 4.92^[b] and the logP (method marked [c] in Table 1) was 7.36^[c].

`CC(=NOCC(C)(C)CON=C(C)c1cccc(-c2ccc(Cl)c(C(F)(F)F)c2)n1)c1cccc(-c2ccc(Cl)c(C(F)(F)F)c2)n1` [compound 577]: the logP (method marked [a] in Table 1) was 7.36^[a].

Regarding `CC(=NOCCC(C)CCON=C(C)c1cccc(C)n1)c1cccc(C)n1` (centres unmarked) [Compound 75], the logP under setting [1] is 4.38^[b].

On to `CC(=NOC(=O)N(C)C(=O)ON=C(C)c1ccc(C)c(C)n1)c1ccc(C)c(C)n1` [compound 674], for which, under “method marked [b] in Table 1”, the logP was 2.79^[b].

As to `C#Cc1cc(C)nc(C(C)=NOCC(C)CON=C(C)c2cc(C#C)cc(C)n2)c1` (centres unmarked) [compound 873], the logP is, setting by setting: (value marked [a]) 6.65^[a]; (value marked [b]) 6.65^[b]; (value marked [c]) 6.61^[c].

As for `C/C(=N\OCC(C)CO/N=C(\C)c1cncc(C)n1)c1cccc(C)n1` (centres unmarked) [compound 505], the logP (value marked [b]) was 3.85^[b]. As for `CCC(=NOc1ncnc(ON=C(C)c2cccc(C)n2)c1C)c1ncccc1C` [compound 739], the logP (method marked [b] in Table 1) was 2.18^[b]. Turning to `C=C(CON=C(C)c1cccc(C(F)(F)F)n1)CON=C(C)c1cccc(C(F)(F)F)n1` [compound 176], the logP under setting [1] is 6.02^[b].

With `C=C(CON=C(C)c1ccc2ccccc2n1)CON=C(C)c1ccc2ccccc2n1` [compound 63], the logP under setting [1] was 6.51^[b]. Consider `CC(=NOCC(C)CON=C(C)c1cccc(-c2ccccc2)n1)c1cccc(-c2ccccc2)n1` (centres unmarked) [compound 563], for which the logP runs as follows: (method marked [b] in Table 1) 7.36^[b]; (method marked [c] in Table 1) 7.36^[c]. `C=CCCC(=NOCCCCCCON=C(C)c1cccc(C)n1)c1ncccc1C` (single isomer, unassigned) [compound 523]: the logP (value marked [b]) is 4.91^[b] (isomer A).

In the case of `CC(=NOCCCCON=C(C)c1cccc(C)n1)c1ccc2c(c1)OCO2` [compound 378], under “value marked [b]”, the logP was 4.35^[b]. For `CC(=NOCC(C)CON=C(C)c1cc(C)n(C)n1)c1cc(C)n(C)n1` (mixture of isomers) [compound 261], the logP (value marked [a]) is 3.09^[a].
